Values quoted from earlier work as cited in patent publication US20120321587A1, “COMPOSITIONS AND METHODS OF USE PERTAINING TO INSECTICIDE” (priority 2009, published 2012).

System: aphids
Settings: nymphs and adults

Row | Structure (SMILES) | efficacy in treating aphids
1 | CCCCCCCCCCCCOS(=O)(=O)[O-].[Na+] [sodium lauryl sulfate] | limited efficacy
2 | CCCCCCCCOC(=O)CC(C(=O)OCCCCCCCC)S(=O)(=O)O.[Na] (centres unmarked) [sodium dioctyl sulfosuccinate] | primary compound responsible for the observed insecticidal activity
